Structures are written as SMILES. Calls of active or inactive are those of the source. The calls are words filed in the database; no cut-off is given here. Bounds are passed on as bounds.

Series [1] concerns Mus musculus. The series can be described thus: In vivo activity against mice infected with murine p388 lymphocytic leukemia cells at a ip dosage range of 0.05-1.6 mg/kg; Inactive. The format is functional, organism-based.
In series [2] the test system is Mus musculus. Put plainly: In vivo activity against mice infected with murine p388 lymphocytic leukemia cells at a ip dose of 0.05 mg/kg. In kind it is functional. To be noted: route intraperitoneal.
The subject of series [3] is Mus musculus. Put plainly: In vivo activity against mice infected with murine p388 lymphocytic leukemia cells at a ip dose of 0.1 mg/kg. In kind it is functional. The following applies: route intraperitoneal.
In series [4] the test system is Mus musculus. The series can be described thus: In vivo activity against mice infected with murine p388 lymphocytic leukemia cells at a ip dose of 0.2 mg/kg. The following applies: route intraperitoneal. In kind it is functional.
Series [5] deals with Mus musculus. The series can be described thus: In vivo activity against mice infected with murine p388 lymphocytic leukemia cells at a ip dose of 0.4 mg/kg. In kind it is functional. The following applies: route intraperitoneal.
Series [6] concerns Mus musculus. The series can be described thus: In vivo activity against mice infected with murine p388 lymphocytic leukemia cells at a ip dose of 0.8 mg/kg. In kind it is functional. To be noted: route intraperitoneal.
A short description of series [7]: In vivo activity was against mice infected with murine p388 lymphocytic leukemia cells at a ip dose of 0.8 mg/kg; Toxic. Also noted: dose 0.8 mg/kg, route intraperitoneal. The following applies: mouse. The format is toxicity, organism-based.
Series [8] is described as follows: In vivo activity against mice infected with murine p388 lymphocytic leukemia cells at a ip dose of 0.4 mg/kg; Toxic. The following applies: mouse. Also noted: dose 0.4 mg/kg, route intraperitoneal. The format is toxicity, organism-based.
A short description of series [9]: In vivo activity against mice infected with murine p388 lymphocytic leukemia cells at a ip dose of 0.8 mg/kg; Toxic. To be noted: mouse. Also on record: dose 0.8 mg/kg, route intraperitoneal. The format is toxicity, organism-based.
Series [10] can be described thus: In vivo activity against mice infected with mice infected with murine p388 lymphocytic leukemia cells at a ip dose of 0.4 mg/kg; Toxic. To be noted: mouse. Also noted: dose 0.4 mg/kg, route intraperitoneal. In kind it is toxicity, organism-based.
The subject of series [11] is Mus musculus. The series can be described thus: In vivo activity against mice infected with murine p388 lymphocytic leukemia cells at a ip dose of 0.2 mg/kg; Toxic. In kind it is functional, organism-based. Also noted: dose 0.2 mg/kg.

With `C=C(C)C12OC3(c4ccccc4)OC1[C@@H]1[C@@H]4O[C@@]45COC(C)(C)O[C@H]5[C@]4(O)C(=O)C=C[C@@]4(C)C1(O3)[C@H](C)[C@H]2OC(=O)/C=C/C=C/CCCCC` (stereo partly drawn), the ILS entry in series [1] was “inactive”.
Regarding `C=C(C)C12OC3(c4ccccc4)OC1[C@@H]1[C@@H]4O[C@]4(CO)[C@@H](O)[C@]4(O)C(=O)C=C[C@@]4(C)C1(O3)[C@H](C)[C@H]2O` (stereo partly drawn), the ILS result in [1] was “inactive”.
In turn, `CCCCCCCCCC(=O)O[C@@H]1[C@@H](C)C23OC4(c5ccccc5)OC([C@@H]2[C@@H]2O[C@]2(CO)[C@@H](O)[C@]2(O)C(=O)C=C[C@@]32C)C1(C(C)C)O4` (stereo partly drawn) displayed an ILS at 0.05 mg/kg in series [2] below 20%. The same compound yielded an ILS at 0.1 mg/kg in series [3] below 20%. This compound also showed an ILS at 0.2 mg/kg in [4] below 20%. In series [5], the increase in life span (ILS) at 0.4 mg/kg turned out to be 30%. Further, in series [6], the ILS at 0.8 mg/kg was 27%.
Consider `C=C(C)C12OC3(c4ccccc4)OC1[C@@H]1[C@@H]4O[C@@]45COC(C)(C)O[C@H]5[C@]4(O)C(=O)C=C[C@@]4(C)C1(O3)[C@H](C)[C@H]2OC(=O)c1ccccc1` (stereo partly drawn), for which the ILS entry in series [1] is “inactive”.
With `CC(C)C12OC3(c4ccccc4)OC1[C@@H]1[C@@H]4O[C@]4(CO)[C@@H](O)[C@]4(O)C(=O)CC[C@@]4(C)C1(O3)[C@H](C)[C@H]2OC(=O)CCCCCCCCc1ccccc1` (stereo partly drawn), the ILS at 0.05 mg/kg in series [2] was below 20%. In series [3], this compound returned an ILS at 0.1 mg/kg below 20%. In addition, the ILS at 0.2 mg/kg in series [4] is below 20%. Moreover, the ILS at 0.4 mg/kg in series [5] turned out to be 25%. Besides, in [6], the increase in lifespan (ILS) at 0.8 mg/kg stood at 25%.
In [2], `C=C(C)C12OC3(c4ccccc4)OC1[C@@H]1[C@@H]4O[C@]4(CO)[C@@H](O)[C@]4(O)C(=O)C=C[C@@]4(C)C1(O3)[C@H](C)[C@H]2OC(=O)/C=C/C=C/c1ccccc1` (stereo partly drawn) had an increase in life span (ILS) at 0.05 mg/kg of 33%. The compound also had an ILS at 0.1 mg/kg in [3] of 33%. In series [4], this compound displayed an ILS at 0.2 mg/kg of 67%. Also, the ILS result in [7] and in [8] was “Toxic” throughout.
The compound `C=C(C)C12OC3(c4ccccc4)OC1[C@@H]1[C@@H]4O[C@]4(CO)[C@@H](O)[C@]4(O)C(=O)C=C[C@@]4(C)C1(O3)[C@H](C)[C@H]2OC(=O)CCCCCCCCC` (stereo partly drawn) came in with an increase in lifespan (ILS) at 0.05 mg/kg in [2] below 20%. Moreover, the increase in life span (ILS) at 0.1 mg/kg in [3] was below 20%. Besides, in series [4], the increase in life span (ILS) at 0.2 mg/kg was below 20%. The same compound showed an increase in lifespan (ILS) at 0.4 mg/kg in [5] of 42%. The increase in lifespan (ILS) at 0.8 mg/kg in series [6] was 43%.
For the compound `C=C(C)C12OC3(c4ccccc4)OC1[C@@H]1[C@@H]4O[C@@]45COC(C)(C)O[C@H]5[C@]4(O)C(=O)C=C[C@@]4(C)C1(O3)[C@H](C)[C@H]2OC(=O)/C=C/C=C/c1ccccc1` (stereo partly drawn), the ILS entry in series [1] is “inactive”.
Turning to `CC(C)C12OC3(c4ccccc4)OC1[C@@H]1[C@@H]4O[C@]4(CO)[C@@H](O)[C@]4(O)C(=O)CC[C@@]4(C)C1(O3)[C@H](C)[C@H]2OC(=O)CCCCc1ccccc1` (stereo partly drawn), the increase in life span (ILS) at 0.05 mg/kg in series [2] was below 20%. The ILS at 0.1 mg/kg in series [3] was below 20%. For the same compound, in [4], the increase in life span (ILS) at 0.2 mg/kg was below 20%. For the same compound, the increase in lifespan (ILS) at 0.4 mg/kg in series [5] worked out at 29%. For the same compound, the increase in life span (ILS) at 0.8 mg/kg in series [6] is 27%.
The compound `CC(C)C12OC3(c4ccccc4)OC1[C@@H]1[C@@H]4O[C@]4(CO)[C@@H](O)[C@]4(O)C(=O)C=C[C@@]4(C)C1(O3)[C@H](C)[C@H]2OC(=O)CCCCc1ccccc1` (stereo partly drawn) returned an increase in lifespan (ILS) at 0.05 mg/kg in series [2] below 20%. In series [3], this compound returned an ILS at 0.1 mg/kg below 20%. The ILS at 0.2 mg/kg in [4] is 43%. The compound further yielded an increase in life span (ILS) at 0.4 mg/kg in series [5] of 43%. Besides, the increase in lifespan (ILS) entry in [9] is “Toxic”.
For `C=C(C)C12OC3(c4ccccc4)OC1[C@@H]1[C@@H]4O[C@@]45COC(C)(C)O[C@H]5[C@]4(O)C(=O)C=C[C@@]4(C)C1(O3)[C@H](C)[C@H]2OC(=O)/C=C/c1ccccc1` (stereo partly drawn), in series [1], the ILS entry is “inactive”.
As to `C=C(C)C12OC3(c4ccccc4)OC1[C@@H]1[C@@H]4O[C@@]45COC(C)(C)O[C@H]5[C@]4(O)C(=O)C=C[C@@]4(C)C1(O3)[C@H](C)[C@H]2OC(=O)CCCCCCCCC` (stereo partly drawn), the ILS result in [1] was “inactive”.
Take `C=C(C)C12OC3(c4ccccc4)OC1[C@@H]1[C@@H]4O[C@@]45COC(C)(C)O[C@H]5[C@]4(O)C(=O)C=C[C@@]4(C)C1(O3)[C@H](C)[C@H]2O` (stereo partly drawn): the ILS result in series [1] was “inactive”.
`C=C(C)C12OC3(c4ccccc4)OC1[C@@H]1[C@@H]4O[C@@]45COC(C)(C)O[C@H]5[C@]4(O)C(=O)C=C[C@@]4(C)C1(O3)[C@H](C)[C@H]2OC(=O)/C=C/C=C/C=C/CCC` (stereo partly drawn): the ILS entry in series [1] was “inactive”.
`CC(C)C12OC3(c4ccccc4)OC1[C@@H]1[C@@H]4O[C@]4(CO)[C@@H](O)[C@]4(O)C(=O)C=C[C@@]4(C)C1(O3)[C@H](C)[C@H]2OC(=O)CCc1ccccc1` (stereo partly drawn) registered an increase in lifespan (ILS) at 0.05 mg/kg in series [2] below 20%. In [3], this compound gave an increase in lifespan (ILS) at 0.1 mg/kg below 20%. For the same compound, in series [4], the increase in lifespan (ILS) at 0.2 mg/kg came out at 38%. The same compound returned an increase in lifespan (ILS) at 0.4 mg/kg in series [5] of 40%. Moreover, the increase in lifespan (ILS) entry in series [9] is reported as “Toxic”.
`C=C(C)C12OC3(c4ccccc4)OC1[C@@H]1[C@@H]4O[C@]4(CO)[C@@H](O)[C@]4(O)C(=O)C=C[C@@]4(C)C1(O3)[C@H](C)[C@H]2OC(=O)/C=C/c1ccccc1` (stereo partly drawn) displayed an increase in life span (ILS) at 0.05 mg/kg in series [2] below 20%. The compound also gave an ILS at 0.1 mg/kg in [3] of 60%. In series [4], this compound came in with an ILS at 0.2 mg/kg of 73%. Besides, the ILS result in series [10] and in [9] was “Toxic” throughout.
On to `CC(C)C12OC3(c4ccccc4)OC1[C@@H]1[C@@H]4O[C@]4(CO)[C@@H](O)[C@]4(O)C(=O)C=C[C@@]4(C)C1(O3)[C@H](C)[C@H]2OC(=O)c1ccccc1` (stereo partly drawn), for which, in series [2], the increase in life span (ILS) at 0.05 mg/kg was below 20%. Moreover, the ILS at 0.1 mg/kg in [3] was determined as 30%. In addition, the ILS at 0.2 mg/kg in series [4] amounted to 42%. The increase in life span (ILS) at 0.4 mg/kg in series [5] was 48%. Besides, the ILS entry in [9] was “Toxic”.
Regarding `CC(C)C12OC3(c4ccccc4)OC1[C@@H]1[C@@H]4O[C@]4(CO)[C@@H](O)[C@]4(O)C(=O)CC[C@@]4(C)C1(O3)[C@H](C)[C@H]2OC(=O)CCc1ccccc1` (stereo partly drawn), the ILS at 0.05 mg/kg in [2] was below 20%. In [3], this compound had an ILS at 0.1 mg/kg below 20%. In [4], this compound returned an increase in life span (ILS) at 0.2 mg/kg below 20%. The compound further came in with an increase in lifespan (ILS) at 0.4 mg/kg in series [5] of 25%. This compound gave an ILS at 0.8 mg/kg in series [6] of 30%.
`C=C(C)C12OC3(c4ccccc4)OC1[C@@H]1[C@@H]4O[C@]4(CO)[C@@H](O)[C@]4(O)C(=O)C=C[C@@]4(C)C1(O3)[C@H](C)[C@H]2OC(=O)c1ccccc1` (stereo partly drawn) showed an ILS at 0.05 mg/kg in [2] below 20%. For the same compound, the increase in lifespan (ILS) at 0.1 mg/kg in series [3] was below 20%. Further, the ILS at 0.2 mg/kg in [4] amounted to 32%. For the same compound, in series [5], the increase in lifespan (ILS) at 0.4 mg/kg amounted to 40%. For the same compound, the ILS result in [9] is “Toxic”.
As to `C=C(C)C12OC3(c4ccccc4)OC1[C@@H]1[C@@H]4O[C@]4(CO)[C@@H](O)[C@]4(O)C(=O)C(C)=C[C@H]4C1(O3)[C@H](C)[C@H]2OC(=O)/C=C/C=C/C=C/CCC` (stereo partly drawn) [GNIDITRIN], the ILS at 0.05 mg/kg in [2] was determined as 44%. Moreover, the ILS at 0.1 mg/kg in [3] worked out at 68%. The increase in life span (ILS) entry in series [11], in series [8] and in series [9] was “Toxic” in each case.
For the compound `C=C(C)C12OC3(c4ccccc4)OC1[C@@H]1[C@@H]4O[C@]4(CO)[C@@H](O)[C@]4(O)C(=O)C=C[C@@]4(C)C1(O3)[C@H](C)[C@H]2OC(=O)/C=C/C=C/CCCCC` (stereo partly drawn), the ILS at 0.05 mg/kg in series [2] amounted to 33%. Further, the increase in life span (ILS) at 0.1 mg/kg in [3] stood at 33%. This compound also registered an increase in life span (ILS) at 0.2 mg/kg in [4] of 42%. In addition, the increase in lifespan (ILS) result in [8] and in [9] was “Toxic” in each case.

The ILS is how much longer treated animals lived than controls.

(Values after ChEMBL document CHEMBL1149951, “Antileukaemic properties of 12-hydroxydaphnetoxin derivatives” (Bioorg Med Chem Lett, 1994).)
